# Laboratory results from PMC6917776, “Discovery of a chemical probe for PRDM9” (Nature Communications, 2019).
# Key:
# SKMM2 = experiment: CelltiterGlo viability cell assay; assay type: cell-based
# Procedure: (§1) Supplementary Figure 13. […] Viability of
# (§2) (a) Multiple Myeloma lines and (b) Breast Cancer cell lines following 3 or 6 days treatment with […]
# (§3) manufacturer’s instructions as described in the Supplementary methods. Data are normalized to DMSO control. N=3 biological replicates, +/- SEM. Source data are provided as a Source Data […]
# (§4) CelltiterGlo viability cell assay
# (§5) Cells were seeded in 96 well plates at per-well densities of 10000 (MDA-MB436, ATCC-HTB130), 15000 (8226, kind gift from Rodger Tiedemann, Princess Margaret Cancer Centre), […]
# (§6) kind gift from Rodger Tiedemann, Princess Margaret Cancer Centre) and 50000 (CAL851, kind gift from Mathieu Lupien, Princess Margaret Cancer Centre) and were treated at increasing concentrations of compounds ranging from 0.01 μM to 30 μM and assessed for proliferation using CelltiterGlo (Promega) following manufacturer’s instructions, as readout on days 3 and 6 as indicated. All cell lines were mycoplasma negative, as determined by MycoAlert™ Mycoplasma Detection Kit(Lonza). […]
# RPMI-8226 = experiment: CelltiterGlo viability cell assay; assay type: cell-based; details: 8226, 3 day
# Procedure: as §1, §2, §3, §4, §5, §6
smiles,measurement,setting,value
COc1cc(OC)cc(-c2noc(N3CCN(C)C4(CCN(c5ccccc5)CC4)C3)n2)c1 [MRK-740N],viability Average,"SKMM2; SKMM2, 3 day, 0.01 uM",99.67
same,viability Replicate 1,"SKMM2; SKMM2, 3 day, 0.01 uM",98.81
same,viability Replicate 2,"SKMM2; SKMM2, 3 day, 0.01 uM",100.27
same,viability Replicate 3,"SKMM2; SKMM2, 3 day, 0.01 uM",99.94
same,viability Average,"SKMM2; SKMM2, 3 day, 0.03 uM",99.81
same,viability Replicate 1,"SKMM2; SKMM2, 3 day, 0.03 uM",100.19
same,viability Replicate 2,"SKMM2; SKMM2, 3 day, 0.03 uM",99.28
same,viability Replicate 3,"SKMM2; SKMM2, 3 day, 0.03 uM",99.96
same,viability Average,"SKMM2; SKMM2, 3 day, 0.1 uM",99.75
same,viability Replicate 1,"SKMM2; SKMM2, 3 day, 0.1 uM",99.33
same,viability Replicate 2,"SKMM2; SKMM2, 3 day, 0.1 uM",101.27
same,viability Replicate 3,"SKMM2; SKMM2, 3 day, 0.1 uM",98.65
same,viability Average,"SKMM2; SKMM2, 3 day, 0.3 uM",100.91
same,viability Replicate 1,"SKMM2; SKMM2, 3 day, 0.3 uM",100.74
same,viability Replicate 2,"SKMM2; SKMM2, 3 day, 0.3 uM",101.32
same,viability Replicate 3,"SKMM2; SKMM2, 3 day, 0.3 uM",100.69
same,viability Average,"SKMM2; SKMM2, 3 day, 1 uM",99.32
same,viability Replicate 1,"SKMM2; SKMM2, 3 day, 1 uM",99.24
same,viability Replicate 2,"SKMM2; SKMM2, 3 day, 1 uM",100.37
same,viability Replicate 3,"SKMM2; SKMM2, 3 day, 1 uM",98.34
same,viability Average,"SKMM2; SKMM2, 3 day, 3 uM",97.16
same,viability Replicate 1,"SKMM2; SKMM2, 3 day, 3 uM",96.17
same,viability Replicate 2,"SKMM2; SKMM2, 3 day, 3 uM",98.52
same,viability Replicate 3,"SKMM2; SKMM2, 3 day, 3 uM",96.79
same,viability Average,"SKMM2; SKMM2, 3 day, 9.5 uM",95.36
same,viability Replicate 1,"SKMM2; SKMM2, 3 day, 9.5 uM",96.79
same,viability Replicate 2,"SKMM2; SKMM2, 3 day, 9.5 uM",94.04
same,viability Replicate 3,"SKMM2; SKMM2, 3 day, 9.5 uM",95.26
same,viability Average,"SKMM2; SKMM2, 3 day, 30 uM",58.34
same,viability Replicate 1,"SKMM2; SKMM2, 3 day, 30 uM",67.94
same,viability Replicate 2,"SKMM2; SKMM2, 3 day, 30 uM",41.11
same,viability Replicate 3,"SKMM2; SKMM2, 3 day, 30 uM",65.95
same,viability Average,"SKMM2; SKMM2, 6 day, 0.01 uM",99.21
same,viability Replicate 1,"SKMM2; SKMM2, 6 day, 0.01 uM",91.53
same,viability Replicate 2,"SKMM2; SKMM2, 6 day, 0.01 uM",105.08
same,viability Replicate 3,"SKMM2; SKMM2, 6 day, 0.01 uM",101.01
same,viability Average,"SKMM2; SKMM2, 6 day, 0.03 uM",96.26
same,viability Replicate 1,"SKMM2; SKMM2, 6 day, 0.03 uM",90.23
same,viability Replicate 2,"SKMM2; SKMM2, 6 day, 0.03 uM",98.46
same,viability Replicate 3,"SKMM2; SKMM2, 6 day, 0.03 uM",100.08
same,viability Average,"SKMM2; SKMM2, 6 day, 0.1 uM",98.07
same,viability Replicate 1,"SKMM2; SKMM2, 6 day, 0.1 uM",90.96
same,viability Replicate 2,"SKMM2; SKMM2, 6 day, 0.1 uM",102.71
same,viability Replicate 3,"SKMM2; SKMM2, 6 day, 0.1 uM",100.56
same,viability Average,"SKMM2; SKMM2, 6 day, 0.3 uM",97.57
same,viability Replicate 1,"SKMM2; SKMM2, 6 day, 0.3 uM",90.30
same,viability Replicate 2,"SKMM2; SKMM2, 6 day, 0.3 uM",102.21
same,viability Replicate 3,"SKMM2; SKMM2, 6 day, 0.3 uM",100.20
same,viability Average,"SKMM2; SKMM2, 6 day, 1 uM",94.68
same,viability Replicate 1,"SKMM2; SKMM2, 6 day, 1 uM",89.98
same,viability Replicate 2,"SKMM2; SKMM2, 6 day, 1 uM",95.60
same,viability Replicate 3,"SKMM2; SKMM2, 6 day, 1 uM",98.45
same,viability Average,"SKMM2; SKMM2, 6 day, 3 uM",95.79
same,viability Replicate 1,"SKMM2; SKMM2, 6 day, 3 uM",90.06
same,viability Replicate 2,"SKMM2; SKMM2, 6 day, 3 uM",96.19
same,viability Replicate 3,"SKMM2; SKMM2, 6 day, 3 uM",101.13
same,viability Average,"SKMM2; SKMM2, 6 day, 9.5 uM",94.06
same,viability Replicate 1,"SKMM2; SKMM2, 6 day, 9.5 uM",88.71
same,viability Replicate 2,"SKMM2; SKMM2, 6 day, 9.5 uM",96.00
same,viability Replicate 3,"SKMM2; SKMM2, 6 day, 9.5 uM",97.48
same,viability Average,"SKMM2; SKMM2, 6 day, 30 uM",64.98
same,viability Replicate 1,"SKMM2; SKMM2, 6 day, 30 uM",81.69
same,viability Replicate 2,"SKMM2; SKMM2, 6 day, 30 uM",45.98
same,viability Replicate 3,"SKMM2; SKMM2, 6 day, 30 uM",67.29
same,viability Average,RPMI-8226; 0.01 uM,101.19
same,viability Replicate 1,RPMI-8226; 0.01 uM,100.76
same,viability Replicate 2,RPMI-8226; 0.01 uM,100.18
same,viability Replicate 3,RPMI-8226; 0.01 uM,102.63
same,viability Average,RPMI-8226; 0.03 uM,99.22
same,viability Replicate 1,RPMI-8226; 0.03 uM,99.66
same,viability Replicate 2,RPMI-8226; 0.03 uM,95.69
same,viability Replicate 3,RPMI-8226; 0.03 uM,102.30
same,viability Average,RPMI-8226; 0.1 uM,101.66
same,viability Replicate 1,RPMI-8226; 0.1 uM,102.47
same,viability Replicate 2,RPMI-8226; 0.1 uM,99.05
same,viability Replicate 3,RPMI-8226; 0.1 uM,103.47
same,viability Average,RPMI-8226; 0.3 uM,100.14
same,viability Replicate 1,RPMI-8226; 0.3 uM,98.42
same,viability Replicate 2,RPMI-8226; 0.3 uM,99.23
same,viability Replicate 3,RPMI-8226; 0.3 uM,102.78
same,viability Average,RPMI-8226; 1 uM,99.15
same,viability Replicate 1,RPMI-8226; 1 uM,95.47
same,viability Replicate 2,RPMI-8226; 1 uM,99.58
same,viability Replicate 3,RPMI-8226; 1 uM,102.40
same,viability Average,RPMI-8226; 3 uM,100.92
same,viability Replicate 1,RPMI-8226; 3 uM,100.27
same,viability Replicate 2,RPMI-8226; 3 uM,100.06
same,viability Replicate 3,RPMI-8226; 3 uM,102.42
same,viability Average,RPMI-8226; 9.5 uM,90.08
same,viability Replicate 1,RPMI-8226; 9.5 uM,80.69
same,viability Replicate 2,RPMI-8226; 9.5 uM,88.67
same,viability Replicate 3,RPMI-8226; 9.5 uM,100.87
same,viability Average,RPMI-8226; 30 uM,40.55
same,viability Replicate 1,RPMI-8226; 30 uM,58.77
same,viability Replicate 2,RPMI-8226; 30 uM,22.31
same,viability Replicate 3,RPMI-8226; 30 uM,40.58
